In patent US10100055B2, “Imidazopyrroloquinoline salt, method for producing the same, medicament, cosmetic, and food” (Mitsubishi Gas Chemical Company, Inc., priority 2016, dated 2018):

How the values were obtained:
[1] = Solubility in water or ethanol, by absorbance at 260 nm; assay type: physicochemical; details: thermodynamic from solid
Procedure: The resultants were allowed to stand at the following temperatures (23° C. or 50° C.) for 1 hour, and thereafter centrifuged, and filtered with a filter of 0.5 μm; […] at an absorption wavelength of 260 nm.

[2] = system: Human uterine cancer cells (HeLa cells); test: Cell activity test (cell counting kit 8); assay type: cell-based; parameters: number of the human uterine cancer cells (number without sample taken to be 100): dose or concentration left out as unconfirmed
Procedure: Human uterine cancer cells (HeLa cells) were cultured in an incubator at a 5%-CO2 concentration and at 37° C. Thereafter, the human uterine cancer cells were inoculated to 96 wells so as to become 1000 cells/well, and cultured for one night. Then, a suspension in which the sample of Example 1 was suspended in a phosphate buffer so as to become 1 g/L was used and added so as to become […]. After 2 days, by using a “cell counting kit 8” (trade name, manufactured by Dojindo Laboratories), the number of the human uterine cancer cells was measured. When the number of the human uterine cancer cells 2 days after the culture for one night when the sample of Example 1 was not added was taken to be 100, the number of the cells when the sample of Example 1 in […] was used was 112.

solubility at 1 h ([1]; organic solvent or mixture, ethanol, 23° C.): 0.4 mg/mL | solubility at 1 h ([1]; water, 23° C.): 37 mg/mL | solubility at 1 h ([1]; water, 50° C.): 47 mg/mL
SMILES: N=C(N)NCCCc1nc2c(=O)c3cc(C(=O)O)[nH]c3c3c(C(=O)O)cc(C(=O)O)n1c23 [Example 1, argIPQ disodium trihydrate]
effect on cell proliferation (in words) [2]: functioned to advance the cell proliferation | number of the human uterine cancer cells (number without sample taken to be 100) ([2]; after 2 days, control = 100): 112
